# In PubChem BioAssay AID977621 (Broad Institute, 2014):
# Inconclusive results are not listed. Active and inactive are the calls of the source.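 The calls were made as follows: active = Wild-type ribosome reporter drop at least double the humanized mutant ribosome reporter drop, growth loss under a set limit; inconclusive = no clear call, values can overlap the other calls; inactive = the rest.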
# Test system: E. coli wild-type GFP strain growth, fluorescence, 24 h
# Test: growth inhibition of wild-type GFP E. coli, dose response, H69 mutant RFP, cherry-pick (AID 977621);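 also: wild-type GFP and H69 mutant RFP strains grown together 50/50 in each well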
# [1] = E. coli mixed culture, 24 h, measured here: total growth OD600, test 2
SMILES,AC50,AC50 [1] [µM],"AC50 (measured here: total growth OD600, test 2) [µM]"
Nc1ccccc1C#CC(=O)c1ccccc1,> 100 µM (inactive),,
C=CCN(c1ccccc1)S(=O)(=O)c1cccc2cccnc12,,> 100,
O=C(CN1CCCC1)Nc1ccccc1Sc1ccc(Cl)cc1,> 100 µM (inactive),29.9,
CSC1=NCCN1C(=O)Cc1ccc(-c2ccccc2)cc1,> 100 µM (inactive),48.3,
COc1ccc(Cc2nnc(Nc3ccc(C)cc3)o2)cc1OC,> 100 µM (inactive),,
O=S1(=O)N[C@@H](Cc2ccccc2)COc2cc(N3CCC[C@H]3CO)ccc21,> 100 µM (inactive),,
C[C@@H]1CN([C@@H](C)CO)C(=O)CCCn2nncc2CO[C@H]1CN(C)C(=O)Nc1ccc(C(F)(F)F)cc1,> 100 µM (inactive),,
CCN(C(=O)COC(=O)CCc1ccccc1)c1ccccc1,> 100 µM (inactive),> 100,
COc1ccc(CN(CC(O)COCc2ccccc2)S(=O)(=O)c2ccccc2Br)cc1OC (stereo unspecified),> 100 µM (inactive),28.5,
CCOc1ccc(OCc2cccc(C(=O)O)c2)cc1,> 100 µM (inactive),,
CCN(CC)CCN(C(=O)C1CCCCC1)c1nc2cc3c(cc2s1)OCO3,> 100 µM (inactive),,
O=C(CCCOc1ccc(Cl)cc1Cl)Nc1ccccc1C(=O)O,,33.7,
COc1ccc(Cl)cc1NC(=O)C1Cc2ccccc2CN1S(C)(=O)=O (stereo unspecified),> 100 µM (inactive),,
CC1CCN(c2ccc3nnc(CCC(=O)Nc4cccc(F)c4)n3n2)CC1,> 100 µM (inactive),> 100,
COc1cc(C(F)(F)F)c(C(=O)N(C)Cc2ccc(Cl)c(Cl)c2)cn1,> 100 µM (inactive),44.6,
CCOc1ccc2[nH]c3c(NCCN(C)C)ncnc3c2c1,,> 100,
CCCCNc1ccc2c(c1)OC[C@@H](Cc1ccccc1)NS2(=O)=O,> 100 µM (inactive),32.4,
O=C(COC(=O)CCC(=O)c1ccc(F)cc1)Nc1cccc(S(=O)(=O)N2CCCC2)c1,,> 100,
COc1ccc(-c2cn(-c3ccc(Cl)cc3)c3[n+]2CCCCC3)cc1,> 100 µM (inactive),,
O=S(=O)(c1ccccc1)N1CC[C@@H]2[C@H](CO)Nc3ccc(Br)cc3[C@@H]21,,43.4,
Fc1cccc(CCN2C(=S)NC[C@@H]2CC2CCCCC2)c1,> 100 µM (inactive),6.09,
COc1cccc(NC(=O)COC(=O)Cc2ccc(Cl)cc2)c1,,> 100,
O=C(c1cccc(F)c1)N1CCN(c2ccc([N+](=O)[O-])c3cccnc23)CC1,> 100 µM (inactive),> 100,

SMILES,AC50,AC50 [1] [µM],"AC50 (measured here: total growth OD600, test 2) [µM]"
Cc1c(-c2cccc(Cl)c2)nc2ccccc2c1C(=O)N1CCC2(CC1)OCCO2,> 100 µM (inactive),,> 100
COc1cc(C(N)=O)cc(Br)c1OCc1ccccc1,> 100 µM (inactive),35.4,
C=CCn1c(C)cc(C(=O)CSc2nnc(C3CC3)n2C2CC2)c1C,,> 100,
COc1cc2[nH]c(=S)nc(NCCc3ccc(C)cc3)c2cc1OC,> 100 µM (inactive),,
Nc1ccccc1Sc1c[nH]c2ccccc12,,> 100,
Cc1ccc(-c2nc3ccc(NS(=O)(=O)c4ccccc4)cc3[nH]2)o1,> 100 µM (inactive),,
S=c1[nH]nc(-c2ccc(Br)cc2)n1-c1ccc2c(c1)OCCO2,> 100 µM (inactive),,
CCOc1ccc(CCNC(=O)CCc2nc3ccccc3[nH]2)cc1OCC,> 100 µM (inactive),> 100,
Cc1cc(C(C)(C)C)oc1C(=O)N(CC(=O)NC1CCCC1)c1c(C)cccc1C,> 100 µM (inactive),> 100,
NS(=O)(=O)c1cc(C(=O)OCC(=O)Nc2ccccc2[N+](=O)[O-])ccc1Cl,> 100 µM (inactive),> 100,
CO[C@@H]1CN(C)C(=O)c2cc(NC(=O)C3CCCC3)ccc2OC[C@@H](C)N(C(=O)Nc2ccc(C(F)(F)F)cc2)C[C@H]1C,> 100 µM (inactive),,
COc1cccc(OC)c1CNC(=O)CCSCc1ccccc1F,,> 100,
CCN(c1ccc(OC)cc1)S(=O)(=O)c1cc(-c2cc(C)no2)ccc1OC,> 100 µM (inactive),36.8,
O=C(COc1cccc2c1CCN(Cc1ccccc1F)C2=O)N1CCCCC1,> 100 µM (inactive),,
Cc1cc(NC(=O)COC(=O)CSCc2ccc(Cl)c(Cl)c2)no1,> 100 µM (inactive),> 100,
O=C(CN(CCO)c1ccccc1)Nc1cccc(S(=O)(=O)N2CCCC2)c1,> 100 µM (inactive),,
CCOC(=O)C1CCCN(C(=O)c2csc(-c3ccc4c(c3)CCO4)n2)C1 (stereo unspecified),> 100 µM (inactive),,
COc1ccc([C@H]2C[C@H](O)C[C@@H](CCn3cc(-c4ccccc4)nn3)O2)cc1,> 100 µM (inactive),> 100,
C[C@H](CO)N1C[C@H](C)[C@@H](CN(C)Cc2ccncc2)OCc2ccccc2-c2c(n(C)c3ccccc23)C1=O,,40.2,
COc1cc(NC(=O)CSCc2ccc(Cl)cc2Cl)c(C(=O)O)cc1OC,> 100 µM (inactive),> 100,
COc1cc(OC)cc(C(=O)Nc2ccc(S(=O)(=O)Nc3cnc4ccccc4n3)cc2)c1,,33,
N#Cc1cccc(-c2ccc3c(c2)[C@H]2[C@H](CCN2C(=O)c2ccccc2F)[C@H](CO)N3)c1,> 100 µM (inactive),,
COC(=O)c1ccc(CN2CCCC(CO)(Cc3ccccc3F)C2)cc1 (stereo unspecified),> 100 µM (inactive),,

SMILES,AC50,AC50 [1] [µM],"AC50 (measured here: total growth OD600, test 2) [µM]"
Cc1cc(C)c(NC(=O)C(C)c2cccc(C(=O)c3ccccc3)c2)c(C)c1 (stereo unspecified),,47.2,
C[C@H](CO)N1C[C@H](C)[C@H](CN(C)C(=O)Nc2ccc3c(c2)OCO3)Oc2c(NC(=O)Nc3ccccc3)cccc2C1=O,,48.4,
CN(C)S(=O)(=O)N1CCN(c2ccccc2Cl)CC1,,> 100,
O=C(NCc1cccnc1)C1CCN(S(=O)(=O)c2cc([N+](=O)[O-])ccc2Cl)CC1,,> 100,
CCCCNC(=O)c1cc2c(C)cc(C)cc2[nH]1,> 100 µM (inactive),,
C=C1SC(Nc2c(C)cc(C)cc2C)=NC12CCCCC2,> 100 µM (inactive),31.9,
COc1ccc(C(=O)Cn2nnc(-c3ccccc3F)n2)cc1,> 100 µM (inactive),41.2,
COc1ccc(OCCC(=O)OCC(=O)NCCC2=CCCCC2)cc1,,> 100,
Cc1nn2c(NCc3ccccn3)cc(C(C)C)nc2c1-c1ccccc1,> 100 µM (inactive),,
Cc1cc(CNC(=O)COc2ccc(C)c(C)c2)c2ccccc2n1,> 100 µM (inactive),,
CN1C(=O)c2ccccc2OC1(C)Cc1ccccc1 (stereo unspecified),> 100 µM (inactive),41.6,
CCc1cc2ccc(OC)cc2nc1SCC(=O)N1CCN(C(=O)c2ccco2)CC1,,42.2,
CCn1c(SCC(=O)Nc2ccc(OC)cc2)nc2nc3c(cc2c1=O)CCCC3,,> 100,
Cc1cc2nc(-c3ccc4c(c3)CCC4)ccn2n1,> 100 µM (inactive),> 100,
C[n+]1ccccc1/C=C/c1cc(Br)ccc1O,> 100 µM (inactive),,
COc1ccccc1-c1ccc(SCc2cccc(F)c2)nn1,> 100 µM (inactive),20.3,
O=C(NCc1cccnc1)c1ccc(COc2ccc3c(c2)CCC3)o1,> 100 µM (inactive),,
Cc1nc(C)c(-c2ccn(S(=O)(=O)c3ccc(Cl)cc3)n2)o1,> 100 µM (inactive),,
COc1ccc(C(=O)NCCC2=CCCCC2)cc1[N+](=O)[O-],,> 100,
CCCN(CC1CC1)C(=O)CSc1ncnc2sccc12,> 100 µM (inactive),,
N#Cc1nc(-c2ccco2)oc1NCc1ccccc1Cl,,49.6,
NC(=O)CSc1nc2cc([N+](=O)[O-])ccc2n1-c1cccc(C(F)(F)F)c1,> 100 µM (inactive),,
O=C(c1cc2cc(F)ccc2[nH]1)N1CCN(Cc2ccc3c(c2)OCO3)CC1,> 100 µM (inactive),24.5,

SMILES,AC50,AC50 [1] [µM],"AC50 (measured here: total growth OD600, test 2) [µM]"
Cc1ccc(NS(=O)(=O)c2cc(C(=O)N3CCc4ccccc4C3)ccc2Cl)cc1,,33.3,
O=C(CC1C(=O)N(c2ccc(Cl)cc2)C(=S)N1CCc1ccncc1)Nc1ccc(F)cc1 (stereo unspecified),,36.4,
O=C(O)c1cc(-c2ccc(Cl)s2)nc2ccccc12,,> 100,
O=C(Nc1ccccc1)N1CCCCN2[C@@H](CO)[C@H](c3ccc(Br)cc3)[C@@H]2C1,> 100 µM (inactive),,
O=C(CCCOc1ccccc1)NCCc1nc2ccccc2[nH]1,> 100 µM (inactive),,
CCN(CC)CCN(C(=O)c1ccc2c(c1)CCCC2)c1nc2ccc(F)cc2s1,,32.5,
COc1ccc(NS(=O)(=O)c2ccc(Oc3c(C#N)cccc3C#N)cc2)cc1,> 100 µM (inactive),27.5,
Cc1nc(SCC(=O)Nc2ccc3c(c2)OCCO3)nc(C)c1C,,43.7,
CCOCCCNC(=O)C(NC(=O)c1ccccc1O)c1ccc(C)cc1 (stereo unspecified),,> 100,
CS(=O)(=O)N(CC(=O)N1CCc2ccccc2C1)c1ccc(Br)cc1,> 100 µM (inactive),33.1,
COc1ccc(NC(=O)Nc2cccc3c2O[C@H](CN(C)S(=O)(=O)c2ccc(Cl)cc2)[C@@H](C)CN([C@H](C)CO)C3=O)cc1,> 100 µM (inactive),,
O=C1c2cccc3cccc(c23)C(=O)N1c1ccccc1Cl,> 100 µM (inactive),,
Cc1onc(-c2ccccc2)c1-c1nnc(-c2ccccc2C(F)(F)F)o1,> 100 µM (inactive),,
CCc1ccc(NC(=O)COC(=O)CCCC2=NS(=O)(=O)c3ccccc3N2)cc1,> 100 µM (inactive),,
CC(C)(CC(=O)O)CC(=O)NCc1c(Cl)cccc1Sc1ccc(Cl)cc1,> 100 µM (inactive),,
COc1ccccc1NC(=O)Cn1cc(C(=O)c2ccco2)c2ccccc21,> 100 µM (inactive),31.3,
N#Cc1ccsc1NC(=O)CSc1nnnn1-c1ccc(O)cc1,> 100 µM (inactive),,
CCn1nc(C(=O)OCc2cccc(S(=O)(=O)N(C)C)c2)c2ccccc2c1=O,> 100 µM (inactive),> 100,
COc1ccc(NS(=O)(=O)c2cccc3ccccc23)cc1,,33.7,
O=C(c1ccc(N2CCCCC2)c([N+](=O)[O-])c1)N1CCN(c2ccccn2)CC1,> 100 µM (inactive),> 100,
CNC(=O)c1sc(-c2ccccn2)nc1C,,> 100,
OC(COc1ccc(Cl)cc1)CN1CCN(c2ccccn2)CC1 (stereo unspecified),> 100 µM (inactive),,
Cc1ccc(NC(=O)C[n+]2cc(-c3ccccc3)n3c2CCC3)cc1,,> 100,
